In one data set the target is T1, human mGluR2 (Homo sapiens, UniProt Q14416).
T1 construct: expressed in transfected cells; host or cells: CHO cells (membrane preparation)
As to the kind of experiment: [35S]GTPγS binding assay (PAM assay) using membranes from CHO cells transfected with the human mGluR2 receptor. It is filed as biochemical. The conditions noted are these: in presence of glutamate at predetermined EC25 concentration, membranes containing human mGluR2, averages of duplicate values of 11-concentration response curves; for EC50: read-out: GTPγS -hR2 PAM pEC50 (converted). As for the experimental part: The [^35S]GTPγS binding assay is a functional membrane-based assay used to study G-protein coupled receptor (GPCR) function whereby incorporation of a non-hydrolysable form of GTP, [^35S]GTPγS (guanosine 5′-triphosphate, labelled with […] ^35S), is measured.
CHO-cells were cultured to pre-confluence and stimulated with 5 mM butyrate for 24 hs, prior to washing in PBS (phosphate-buffered saline), and then collection by scraping in homogenisation buffer (50 mM Tris-HCl buffer, pH 7.4, 4° C.). Cell lysates were homogenized briefly (15 s) using an ultra-turrax homogenizer. The homogenate was centrifuged at 23 500×g for 10 min. and the supernatant discarded. The pellet was resuspended in 5 mM Tris-HCl, pH 7.4 and centrifuged again (30 000×g, 20 min., 4° C.). The final pellet was resuspended in 50 mM HEPES, pH 7.4 and stored at −80° C. in appropriate aliquots before use. Protein concentration was determined by the Bradford method (Bio-Rad, USA) with bovine serum albumin as standard.
Measurement of mGluR2 positive allosteric modulatory activity of test compounds in membranes containing human mGluR2 was performed using frozen membranes that were thawed and briefly homogenised prior to pre-incubation in 96-well microplates (15 μg/assay well, 30 minutes, 30° C.) in assay buffer (50 mM HEPES pH 7.4, 100 mM NaCl, 3 mM MgCl2, 50 μM GDP, 10 μg/ml saponin,) with increasing concentrations of positive allosteric modulator (from 0.3 nM to 50 μM) and either a minimal pre-determined concentration of glutamate (PAM assay), or no added glutamate. […] After addition of [^35S]GTPγS (0.1 nM, f.c.) to achieve a total reaction volume of 200 μl, microplates were shaken briefly and further incubated to allow [^35S]GTPγS incorporation on activation (30 minutes, 30° C.). The reaction was stopped by rapid vacuum filtration over glass-fibre filter plates (Unifilter 96-well GF/B filter plates, Perkin-Elmer, Downers Grove, USA) microplate using a 96-well plate cell harvester (Filtermate, Perkin-Elmer, USA), and then by washing three times with 300 μl of ice-cold wash buffer (Na2PO4.2H2O 10 mM, NaH2PO4.H2O 10 mM, pH=7.4). Filters were then air-dried, and 40 μl of liquid scintillation cocktail (Microscint-O) was added to each well, and membrane-bound [^35S]GTPγS was measured in a 96-well scintillation plate reader (Top-Count, Perkin-Elmer, USA). Non-specific [^35S]GTPγS binding is determined in the presence of cold 10 μM GTP. Each curve was performed at least once using duplicate sample per data point and at 11 concentrations.
The concentration-response curves of representative compounds of the present invention in the presence of added EC25 of mGluR2 agonist glutamate to determine positive allosteric modulation (PAM), were generated using the Prism GraphPad software (Graph Pad Inc, San Diego, USA).
For orientation: Binding of GTPγS marks nucleotide exchange on a G protein.

Structures are written as SMILES.

One may read the melting point as the temperature, or range, at which the solid turns liquid.

T1 sequence (Q14416 19-872): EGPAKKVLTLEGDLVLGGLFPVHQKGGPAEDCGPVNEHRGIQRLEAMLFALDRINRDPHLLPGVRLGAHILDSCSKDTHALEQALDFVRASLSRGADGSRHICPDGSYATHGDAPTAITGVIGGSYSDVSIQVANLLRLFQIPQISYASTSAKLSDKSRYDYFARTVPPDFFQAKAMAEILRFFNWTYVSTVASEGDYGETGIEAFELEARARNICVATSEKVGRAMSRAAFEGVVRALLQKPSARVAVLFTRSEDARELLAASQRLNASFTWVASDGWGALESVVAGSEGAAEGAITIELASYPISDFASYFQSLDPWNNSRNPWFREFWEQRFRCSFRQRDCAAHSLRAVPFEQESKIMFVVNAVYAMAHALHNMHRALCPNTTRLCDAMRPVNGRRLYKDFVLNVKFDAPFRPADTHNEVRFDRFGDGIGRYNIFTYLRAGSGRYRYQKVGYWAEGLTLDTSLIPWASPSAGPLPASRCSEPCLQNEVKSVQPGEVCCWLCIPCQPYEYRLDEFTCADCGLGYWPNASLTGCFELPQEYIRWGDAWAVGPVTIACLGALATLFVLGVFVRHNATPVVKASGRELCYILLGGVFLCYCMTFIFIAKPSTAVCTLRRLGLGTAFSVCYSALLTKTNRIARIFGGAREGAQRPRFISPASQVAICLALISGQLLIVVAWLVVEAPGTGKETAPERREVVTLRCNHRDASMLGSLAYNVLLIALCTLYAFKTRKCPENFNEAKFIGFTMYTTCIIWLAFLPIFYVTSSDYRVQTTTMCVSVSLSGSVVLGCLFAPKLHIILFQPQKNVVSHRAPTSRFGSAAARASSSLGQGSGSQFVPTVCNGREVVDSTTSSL

Consider `OC1CCC(N2CCOc3cc(-c4ccn5c(CC(F)(F)F)cnc5c4Cl)ccc32)CC1` (mixture of isomers) [Compound 5, 4-[7-[8-Chloro-3-(2,2,2-trifluoro-ethyl)-imidazo[1,2-a]pyridin-7-yl]-2,3-dihydro-4H-1,4-benzoxazin-4-yl]-cyclohexanol], for which the EC50 at human mGluR2 is 112 nM.

Take `N#Cc1c(-c2cc(Cl)c3c(ccn3C3CCOCC3)c2)ccn2c(CC(F)(F)F)cnc12` [Compound 1, 7-[7-Chloro-1-(tetrahydro-pyran-4-yl)-1H-indol-5-yl]-3-(2,2,2-trifluoroethyl) imidazo[1,2-a]pyridine-8-carbonitrile]: on human mGluR2, the EC50 is 380 nM.

As to `FC(F)(F)Cc1cnc2c(Cl)c(-c3cc(Cl)c4[nH]ccc4c3)ccn12` [Compound 2, 8-Chloro-7-(7-chloro-M-indol-5-yl)-3-(2,2,2-trifluoroethyl)-imidazo[1,2-a]-pyridine], the melting point is 182.8 °C. Moreover, the “GTPγS -hR2 PAM pEC50” value at human mGluR2 amounted to 7.07.

For `O[C@H]1CC[C@H](n2ccc3cc(-c4ccn5c(CC(F)(F)F)cnc5c4Cl)ccc32)CC1` [Compound 3], the melting point amounted to 131.6 °C. Moreover, the EC50 at human mGluR2 was 166 nM.

For `C[C@]1(O)CC[C@H](n2ccc3cc(-c4ccn5c(CC(F)(F)F)cnc5c4Cl)ccc32)CC1` [Compound 4, trans-4-[5-[8-Chloro-3-(2,2,2-trifluoroethyl)-imidazo[1,2-a]pyridin-7-yl]-1H-indol-1-yl-]-1-methyl-cyclohexanol], the melting point worked out at 262.2 °C. The EC50 at human mGluR2 was 129 nM.

`N#Cc1c(-c2ccc3c(ccn3C3CCOCC3)c2)ccn2c(CC(F)(F)F)cnc12` [Compound 6]: the melting point was found to be 232.9 °C.

On to `Cn1ccc2cc(-c3ccn4c(CC(F)(F)F)cnc4c3C#N)ccc21` [Compound 7], for which, at human mGluR2, the “GTPγS -hR2 PAM pEC50” value is 6.64.

As to `CC(C)(O)Cn1ccc2cc(-c3ccn4c(CC(F)(F)F)cnc4c3C#N)ccc21` [Compound 9], the EC50 on human mGluR2 was 1070 nM.

The compound `Cn1ccc2cc(-c3ccn4c(CC(F)(F)F)cnc4c3C#N)cc(Cl)c21` [Compound 10] registered a melting point of 172 °C.

In turn, `N#Cc1c(-c2cc(Cl)c3c(ccn3CC3CC3)c2)ccn2c(CC(F)(F)F)cnc12` [Compound 11] displayed a melting point of 175.3 °C. For the same compound, the “GTPγS -hR2 PAM pEC50” value on human mGluR2 was 6.96.

Take `N#Cc1c(-c2ccc3c(c2)OCCN3CC2CC2)ccn2c(CC(F)(F)F)cnc12` [Compound 12]: the EC50 at human mGluR2 was 117 nM.

`N#Cc1c(-c2ccc3c(ccn3CC3CC3)c2)ccn2c(CC(F)(F)F)cnc12` [Compound 13] displayed a melting point of 117.9 °C.

Turning to `CC(C)OCCn1ccc2cc(-c3ccn4c(CC(F)(F)F)cnc4c3C#N)ccc21` [Compound 14], on human mGluR2, the EC50 was 813 nM.

With `CN1CCOc2cc(-c3ccn4c(CC(F)(F)F)cnc4c3C#N)ccc21` [Compound 15], on human mGluR2, the EC50 is 575 nM.

Take `N#Cc1c(-c2ccc3c(ccn3[C@H]3CC[C@H](O)CC3)c2)ccn2c(CC(F)(F)F)cnc12` [Compound 16]: the EC50 on human mGluR2 is 245 nM.

Regarding `FC(F)(F)Cc1cnc2c(Cl)c(-c3cc(Cl)c4c(ccn4CC4CC4)c3)ccn12` [Compound 18], the melting point amounted to 151.3 °C. Moreover, the “GTPγS -hR2 PAM pEC50” value at human mGluR2 was determined as 6.60.

Turning to `N#Cc1c(-c2ccc3c(c2)OCCN3[C@H]2CC[C@H](O)CC2)ccn2c(CC(F)(F)F)cnc12` [Compound 19], the EC50 on human mGluR2 was 191 nM.

As to `C[C@]1(O)CC[C@H](n2ccc3cc(-c4ccn5c(CC(F)(F)F)cnc5c4C#N)ccc32)CC1` [Compound 21], the melting point worked out at 138.6 °C. For the same compound, the EC50 at human mGluR2 was 309 nM.

`C[C@]1(O)CC[C@@H](n2ccc3cc(-c4ccn5c(CC(F)(F)F)cnc5c4C#N)ccc32)CC1` [Compound 22] gave a melting point of 171.1 °C. On human mGluR2, the EC50 was 501 nM.

In the case of `FC(F)(F)Cc1cnc2c(Cl)c(-c3ccc4c(ccn4-c4ccccn4)c3)ccn12` [Compound 24], at human mGluR2, the EC50 was 468 nM.

On to `FC(F)(F)Cc1cnc2c(Cl)c(-c3ccc4c(ccn4-c4ncccn4)c3)ccn12` [Compound 25, 8-Chloro-7-(1-pyrimidin-2-yl-1H-indol-5-yl)-3-(2,2,2-trifluoro-ethyl)-imidazo[1,2-a]pyridine], for which the EC50 on human mGluR2 is 331 nM.

As for `N#Cc1c(-c2ccc3c(ccn3Cc3ccncc3)c2)ccn2c(CC(F)(F)F)cnc12` [Compound 27], on human mGluR2, the EC50 was 117 nM.

As for `N#Cc1c(-c2ccc3c(ccn3-c3ccccc3)c2)ccn2c(CC(F)(F)F)cnc12` [Compound 28], the EC50 on human mGluR2 is 219 nM.

Compound `N#Cc1c(-c2ccc3c(ccn3-c3ccc(F)cc3)c2)ccn2c(CC(F)(F)F)cnc12` [Compound 29] came in with a melting point of 197.3 °C. Also, the EC50 on human mGluR2 is 200 nM.

With `Cc1cc(Cn2ccc3cc(-c4ccn5c(CC(F)(F)F)cnc5c4C#N)ccc32)ccn1` [Compound 30], the EC50 on human mGluR2 was 33.9 nM.
